The text below walks through data of patent EP4653523A1, “CULTURE MEDIUM, PRODUCTION METHOD, AND CELL PREPARATION” (National University Corporation Kumamoto University, priority 2023, dated 2024).

SMILES strings stand for the structures.

The test system of assay [1] is EPCR High cell group. Briefly: Ex vivo culture of mouse EPCR High cell group for 4 days, flow cytometry and cell count. The format is cell-based. The settings on record: cultured for 4 days, vs control. The text has this: The expression of c-kit and EPCR in a hematopoietic stem cell fraction (lineage: CD150+, CD48-) isolated from a mouse by using flow cytometry was checked. Among the c-kit-positive and EPCR-positive cells, a cell group of the top 30% of the EPCR-positive cells was defined as an EPCR High cell group, and a cell group of the bottom 30% of the EPCR-positive cells was defined as an EPCR Low cell group (see FIG. 1). Each cell group was transplanted into a recipient mouse, and 20 weeks later, the proportion of cells derived from the transplanted stem cells was examined in the peripheral blood (PB). In addition, at the same time, the proportion of cells derived from the transplanted stem cells was examined in the hematopoietic stem cell fraction ([…]) in the bone marrow after 20 weeks of the transplantation. The experiment was carried out twice. […] The culture medium used for the ex vivo culture of the untreated hematopoietic stem cells isolated from the mouse is a culture medium obtained by adding, to the RPMI medium, L-Alanin (4.45mg/L), Zinc Sulfate Heptahydrate (0.432mg/L), Cupric Sulfate Pentahydrate (0.0013mg/L), Ferric Nitrate Nonahydrate (0.05mg/L), Ferrous Sulfate Heptahydrate (0.417mg/L), Linoleic acid (0.042mg/L), Hypoxanthine (2.1mg/L), Putrescine + 2HCL (0.081mg/L), Thioctic Acid (0.105mg/L), Thymidine (0.365mg/L), Sodium Pyruvate (55mg/L), HEPES (1mM), a penicillin-streptomycin mixed solution (Nacalai Tesque, Inc.: 26253-84) (1/100 capacity), Insulin-Transferrin-Selenium-Ethanolamine (Thermo Fisher Scientific, Inc.: 51500056) (1/100 capacity), and AlbuMAXtm I Lipid-Rich BSA (Thermo Fisher Scientific, Inc.: 11020021) (2%). As shown in FIG. 5(A), α-ketoglutaric acid (αKG), which is an intermediate metabolite of the TCA cycle, is also produced from glutamic acid or the like, and then it is supplied to the TCA cycle. In addition, in the production of α-ketoglutaric acid from glutamic acid, two pathways of a transaminase pathway and a glutamate dehydrogenase pathway are used (see FIG. 5(B)). Therefore, the proportion of EPCR High in hematopoietic stem cells was determined in a case where the EPCR High cell group was cultured for 4 days by adding each of an inhibitor […] (30 μM) of glutamate dehydrogenase and an inhibitor aminooxyacetic acid (AOA) (50 μM) of transaminase to the culture medium, and in a case where the content of […] in the culture medium, which is the source of glutamic acid synthesis, was set to 1/100 (0.02 mM) in FIG. 5(A) (Low Neu.). […] As a result, in a case of culturing in the presence of […], the number of cells having the EPCR High phenotype is increased by about 2 times in the culture for 4 days, as compared with the culture under the normal culture conditions. […]
In general terms: In flow cytometry, cells or beads pass a laser one at a time.

The test system of assay [2] is EPCR High cell group. Briefly: Chromatin status by open chromatin region analysis (ATAC-sequence) with principal component analysis. The format is cell-based, mouse. The conditions noted are these: 4d gEPCR-High (R162) compared with 4d gEPCR-High, cultured for 4 days. How it is done: In the same manner, the chromatin status of each cell group was analyzed by open chromatin region analysis (ATAC-sequence).

Assay [3] concerns recipient mouse. The experiment in a line: Transplantation of cultured cell groups into recipient mouse, proportion of donor-derived cells. The format is in vivo. As to the method:
Mouse EPCR High cells were cultured for 4 days under the normal culture conditions or in the presence of R162, and 50 cells of each of an EPCR High cell group (Control) generated under the normal culture conditions, an EPCR Low cell group (Control), and an EPCR High cell group (R162) amplified in the presence of R162 were aliquoted and then transplanted into a recipient mouse. Then, after 4 weeks and 12 weeks, the proportion of cells derived from donor cells in the peripheral blood was examined.
Further, the EPCR High cells were cultured for 4 days under the normal culture conditions and cultured for 4 days in the presence of R162, and the EPCR High cell group generated under the normal culture conditions, the EPCR Low cell group, and the EPCR High cell group (R162) amplified in the presence of R162 were each transplanted into a recipient mouse. Then, 20 weeks later, the proportion of cells derived from donor cells was examined in the peripheral blood and the hematopoietic stem cell fraction in the bone marrow (L-ESLAM (BM)).

Assay [4] relates to EPCR High cell group. Briefly: Gene expression pattern analysis by RNA-sequence with principal component analysis. The format is cell-based, mouse. The settings on record: 4d gEPCR-High (R162) compared with 4d gEPCR-High, cultured for 4 days.
Assay [5] deals with Human CD34^+ bone marrow cells. Briefly: Culture of human CD34+ bone marrow cells for 7 days, total cell count and flow cytometry. The format is cell-based. How it is done:
Human CD34^+ bone marrow cells (10,000 cells) were cultured for 7 days under normal culture conditions or in the presence of a glutamate dehydrogenase inhibitor R162 (30 µM), and then the total number of cells was analyzed. Then, the proportion of hematopoietic stem cells (lineage: CD34+ CD38- CD90+ cells) was analyzed using a flow cytometer, and from the results, the number of stem cells was estimated. FIG. 13 and FIG. 14 show the results. As shown in FIG. 14(A), it has been confirmed that the total number of cells is not changed by the presence of R162 as compared with the control, whereas as shown in FIG. 14(B), the ratio of stem cells after culturing is increased by the presence of R162.
The culture medium used for the ex vivo culture of human CD34+ bone marrow cells is a culture medium obtained by adding, to the RPMI medium, L-Alanin (4.45mg/L), Zinc Sulfate Heptahydrate (0.432mg/L), Cupric Sulfate Pentahydrate (0.0013mg/L), Ferric Nitrate Nonahydrate (0.05mg/L), Ferrous Sulfate Heptahydrate (0.417mg/L), Linoleic acid (0.042mg/L), Hypoxanthine (2.1mg/L), Putrescine + 2HCL (0.081mg/L), Thioctic Acid (0.105mg/L), Thymidine (0.365mg/L), Sodium Pyruvate (55mg/L), HEPES (1mM), a penicillin-streptomycin mixed solution (Nacalai Tesque, Inc.: 26253-84) (1/100 capacity), Insulin-Transferrin-Selenium-Ethanolamine (Thermo Fisher Scientific, Inc.: 51500056) (1/100 capacity), and AlbuMAXtm I Lipid-Rich BSA (Thermo Fisher Scientific, Inc.: 11020021) (2%).

For the molecule `C=CCc1ccc2c(c1O)C(=O)c1ccccc1C2=O` [R162, 2-allyl-1-hydroxy-9,10-anthraquinone], the “proportion of EPCR High in hematopoietic stem cells” value in assay [1] (R162 30 µM in culture medium) is “phenotype of EPCR High is maintained”. In addition, the number of cells entry in assay [1] (R162 30 µM) was “about the same level as that of the control”. For the same molecule, the “chromatin status (chromatin accessibility of cis-element regions)” value in assay [2] is on record as “extremely similar gene expression patterns even in the chromatin status”. Moreover, the “proportion of cells derived from donor cells in the peripheral blood” value in assay [3] (50 cells of EPCR High cell group amplified 4 days in the presence of R162, transplanted, after 4 weeks and 12 weeks) is recorded as “high ability to reconstruct hematopoietic tissue, which is equivalent to the EPCR High cell group (Control)”. Further, the “proportion of cells derived from donor cells in the peripheral blood and the hematopoietic stem cell fraction in the bone marrow (L-ESLAM (BM))” value in assay [3] (EPCR High cell group amplified 4 days in the presence of R162, transplanted, 20 weeks later) was “high ability to maintain the reconstructed hematopoiesis for a longer period of time”. Also, in assay [4], the gene expression pattern result was “extremely similar gene expression patterns”. The “total number of cells” value in assay [5] (R162 30 µM, 10,000 cells cultured for 7 days, vs control) is recorded as “not changed”. Moreover, the “number of stem cells” value in assay [5] (R162 30 µM, cultured for 7 days, estimated from total cell number and proportion, vs normal culture conditions) is given as “the number of stem cells is increased”. Further, in assay [5] (R162 30 µM, cultured for 7 days, vs control), the “ratio of stem cells after culturing (CD34+ CD38- CD90+ cells)” value is “increased”.
Take `NOCC(=O)O` [AOA, aminooxyacetic acid]: in assay [1] (AOA 50 µM), the number of cells result is on record as “significantly reduced as compared with the control”.
Take `O=C(O[C@@H]1Cc2c(O)cc(O)cc2O[C@@H]1c1cc(O)c(O)c(O)c1)c1cc(O)c(O)c(O)c1` [EGCG, epigallo catechin-3-gallate]: in assay [1] (EGCG 50 µM in culture medium), the “proportion of EPCR-positive cells (phenotype of EPCR High)” value was “phenotype of EPCR High is maintained”.
